Laboratory results reported in patent publication US20210186930A1, “Methods of Treating Renal Disease Associated With Chronic Kidney Disease Such as Alport Syndrome” (UNIVERSITY OF MIAMI, priority 2018, published 2021).
“Also recorded” adds a separate entry of the source.

What was measured:
Col4a3−/− mice [1] = test: Mesangial expansion (PAS) and renal fibrosis (Picrosirius Red) in Col4a3-/- mice (Example 3, FIG. 6); assay type: in vivo, mouse; conditions: treated vs untreated Col4a3−/− mice; ezetimibe 5 mg/kg, ramipril 10 mg/kg, 4 weeks
Experimental: Assessment of mesangial expansion: Periodic acid-Schiff (PAS) staining of 4 μm-thick tissue sections was performed using a standard protocol. Twenty glomeruli per section were analyzed for mesangial expansion by semi quantitative analysis (scale 0-4) performed by two blinded independent investigators.
Picrosirius red staining: Paraffin-embedded sections (4 μm thick) were deparaffinized with xylene and a graded alcohol series. Sections were rinsed for 5 min in distilled water, stained for 1 hour with picrosirius red in saturated aqueous picric acid, examined under a light microscope and photomicrographs were taken. Histological images were visualized using a light microscope (Olympus BX 41, Tokyo, Japan) at 40× magnification and analyzed using Image J software.
The following experiment was performed to investigate which treatment, ezetimibe (EZ), ramipril (Ramp) or the combination of both drugs (EZ+Ramp), would best preserve renal function in Col4a3 knockout mice, all drugs were administered to 4-week-old Col4a3−/− mice for 4 weeks as follows: ezetimibe (Ez) was orally administered at a concentration of 5 mg/kg BW, ramipril was added to the drinking water at a concentration that would lead to a daily ramipril uptake of 10 mg/kg BW. All mice were sacrificed at 8 weeks of age. The following four groups of mice were analyzed: Col4a3^+/+, Col4a3^−/−+Ez, Col4a3^−/−+Ramp and Col4a3^−/−+Ez+Ramp.
PAS staining was performed to detect and quantify mesangial expansion, Picrossirius Red staining to detect and quantify renal fibrosis in treated compared to untreated Col4a3^−/− mice. […] Representative images for PAS staining are shown in FIG. 6A and of Picrosirius Red staining to detect fibrosis in […]. Bar graph quantifications for both are shown in FIGS. 6C and 6D, respectively.

Col4a3−/− mice [2] = test: Renal cortex lipid content in Col4a3-/- mice (Example 4, FIG. 7); assay type: in vivo, mouse; conditions: treated vs untreated Col4a3−/− mice; ezetimibe 5 mg/kg, ramipril 10 mg/kg, 4 weeks
Experimental: Determination of cholesterol content in kidney cortex: Tissue from kidney cortexes was homogenized in hypotonic buffer (10 mM HEPES pH7.0, 15 mM KCl, 1 mM MgCl2, 10 mM phosphatase inhibitors). Lipids from 100 μl of the homogenate were extracted with 1 ml of hexane:isopropanol (3:2, v/v), dried and reconstituted in 100 μl of isopropanol-NP40 (9:1, v/v). Tissue fractions not soluble in the organic solvent, were further dried, reconstituted in 8 M urea, and assayed for protein concentration using Pierce BCA protein assay kit (ThermoFisher Scientific, MA, USA). Total cholesterol from lipid extracts was determined by the enzymatic method as previously described (Robinet, P., Wang, Z., Hazen, S. L. & Smith, J. D. A simple and sensitive enzymatic method for cholesterol quantification in macrophages and foam cells. Journal of lipid research 51, 3364-3369, 2010). Briefly, endogenous peroxides present were eliminated by incubating samples and standards with catalase (Sigma-Aldrich, MO, USA), 45 U/ml final concentration, for 15 min at 37° C. […] The plates were incubated at 37° C. for 30 min and fluorescence was read at 530 nm (Ex) and 580 nm (Em) in a plate reader (SpectraMax M5, Molecular Devices, CA, USA). Cholesteryl esters (CE) quantification was based on the method described from Toshimi M, et al. Briefly, 25 μl of samples was mixed with 150 μl of free cholesterol decomposition reagent (45 U/ml catalase, 1 U/ml cholesterol oxidase) and incubated 2-4 h at 37° C., and then the final volume was brought up to 250 μl prior to determining free and total cholesterol remaining. Total cholesterol remaining was determined by mixing 50 μl of end product reaction with 50 μl of reagent A, as described above. Free cholesterol remaining was determined similarly, but without including cholesterol esterase in the reagent. CE was calculated by the formula CE=(TC−FC)×DF, where TC is the total cholesterol remaining, FC the free cholesterol remaining and DF the dilution factor, in this case, 10. Lipid content: Oil Red 0 staining was performed on frozen tissue sections and triglyceride content was determined on snap frozen kidney tissue as described above. The following experiment was performed to investigate which treatment, ezetimibe (EZ), ramipril (Ramp) or the combination of both drugs (EZ+Ramp), would best preserve renal function in Col4a3 knockout mice, all drugs were administered to 4-week-old Col4a3−/− mice for 4 weeks as follows: ezetimibe (Ez) was orally administered at a concentration of 5 mg/kg BW, ramipril was added to the drinking water at a concentration that would lead to a daily ramipril uptake of 10 mg/kg BW. All mice were sacrificed at 8 weeks of age. The following four groups of mice were analyzed: Col4a3^+/+, Col4a3^−/−+Ez, Col4a3^−/−+Ramp and Col4a3^−/−+Ez+Ramp.

Col4a3−/− mice [3] = test: Renal function in Col4a3-/- mice treated with ezetimibe, ramipril or both (Example 1, FIG. 5); assay type: in vivo, mouse
From the text: Albumin/creatinine ratio: All albuminuria values are expressed as μg albumin/mg creatinine. Albumin/creatinine determined by ELISA (Bethyl Laboratories) for albumin detection and a biochemical assay based on the Jaffe method for creatinine detection (Stanbio) as previously described. Serology: Immediately prior to sacrifice, a blood sample was collected for the determination of BUN and lipid panel analysis in the comparative laboratory core facility of the University of Miami. Serum creatinine was determined by tandem mass spectrometry (UAB-UCSD O'Brien Core Center, University of Alabama). The following experiment was performed to investigate which treatment, ezetimibe (EZ), ramipril (Ramp) or the combination of both drugs (EZ+Ramp), would best preserve renal function in Col4a3 knockout mice, all drugs were administered to 4-week-old Col4a3−/− mice for 4 weeks as follows: ezetimibe (Ez) was orally administered at a concentration of 5 mg/kg BW, ramipril was added to the drinking water at a concentration that would lead to a daily ramipril uptake of 10 mg/kg BW. All mice were sacrificed at 8 weeks of age. The following four groups of mice were analyzed: Col4a3^+/+, Col4a3^−/−+Ez, Col4a3^−/−+Ramp and Col4a3^−/−+Ez+Ramp.

[4] = cited from earlier work
[5] = cited from earlier work; remark: listed apart in the source
DDR1 = biological target: T1, DDR1 (Homo sapiens, UniProt Q08345); test: DDR1 activation in human podocytes treated with collagen (FIG. 2); assay type: cell-based
T1 construct: Differentiated human podocytes were serum starved for 16 hours followed by 18 hours treatment with 50 μg/mL collagen I; endogenous in cells; host or cells: conditionally immortalized human podocyte cell line (Saleem et al. 2002), differentiated
Experimental: (§1) Differentiated human podocytes were serum starved for 16 hours followed by 18 hours treatment with 50 μg/mL collagen I (Corning), collagen II (Discoverx), and collagen IV (Sigma Aldrich)
Isolation of plasma membranes: Preparation of membrane pellets was performed by ultracentrifugation of cell pellets suspended in homogenization media (15 mM KCl, 1.5 mM MgCl2, 10 mM HEPES, 1 mM DTT) supplemented with protease inhibitors. Effective separation was verified by WB for Na-K ATPase.

human podocytes = test: Collagen treatment of human podocytes: lipid content and free fatty acid uptake (FIG. 1); assay type: cell-based
Experimental: as §1
Lipid content determination: Following collagen treatment, podocyte lipid content was assessed after fixation with PFA and staining with Bodipy 493/503 and Cell Mask Blue (Invitrogen). The Opera High Content Screening system and Acapella Image Analysis software was used to determine the number of Bodipy 493/503 positive lipid droplets per cell. Triglyceride content was assessed using the Triglyceride Quantification Kit (Cell Biolabs) following manufacturer instructions and normalizing to cell protein content using the BCA method.
Free fatty acid uptake was assessed using the fluorometric free fatty acid uptake Kit (Abcam) in Ctrl and Col I treated podocytes after 1 hour serum starvation. The uptake of FFA was analyzed using a fluorimeter (SpectraMax5, […]).

[6] = Col4a3−/− mice treated 4 weeks, ezetimibe 5 mg/kg, ramipril 10 mg/kg, vs untreated Col4a3−/−
[7] = Col4a3−/− mice, 4 weeks treatment

T1 sequence (Q08345 19-913): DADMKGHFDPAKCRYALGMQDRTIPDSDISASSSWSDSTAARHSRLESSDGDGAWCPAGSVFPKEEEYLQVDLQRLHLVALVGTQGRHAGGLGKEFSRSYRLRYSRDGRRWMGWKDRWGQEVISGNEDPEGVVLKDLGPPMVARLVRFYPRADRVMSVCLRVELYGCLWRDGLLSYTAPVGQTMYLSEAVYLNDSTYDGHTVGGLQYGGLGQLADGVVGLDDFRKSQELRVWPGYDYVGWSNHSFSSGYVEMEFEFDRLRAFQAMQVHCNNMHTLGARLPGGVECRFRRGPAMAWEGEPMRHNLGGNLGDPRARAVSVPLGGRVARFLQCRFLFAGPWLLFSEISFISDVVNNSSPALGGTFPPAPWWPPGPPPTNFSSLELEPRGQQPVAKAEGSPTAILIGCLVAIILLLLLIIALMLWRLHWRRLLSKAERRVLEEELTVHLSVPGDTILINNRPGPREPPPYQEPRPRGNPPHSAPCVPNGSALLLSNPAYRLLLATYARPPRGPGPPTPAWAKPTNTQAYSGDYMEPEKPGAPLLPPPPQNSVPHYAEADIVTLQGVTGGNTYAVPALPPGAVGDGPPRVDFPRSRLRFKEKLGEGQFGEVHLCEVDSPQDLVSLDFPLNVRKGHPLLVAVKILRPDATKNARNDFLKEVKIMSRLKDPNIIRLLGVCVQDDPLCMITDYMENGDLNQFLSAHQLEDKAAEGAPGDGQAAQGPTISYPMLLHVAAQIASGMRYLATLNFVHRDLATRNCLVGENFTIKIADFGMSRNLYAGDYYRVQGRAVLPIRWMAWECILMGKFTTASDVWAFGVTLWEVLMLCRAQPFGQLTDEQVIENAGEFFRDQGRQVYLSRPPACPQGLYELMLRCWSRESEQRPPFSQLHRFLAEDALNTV

CCOC(=O)[C@H](CCc1ccccc1)N[C@@H](C)C(=O)N1[C@H](C(=O)O)C[C@@H]2CCC[C@@H]21 [ramipril, (2S,3aS,6aS)-1[(S)—N—[(S)-1-Carboxy-3-phenylpropyl]alanyl]octahydrocyclop-enta[b]pyrrole-2-carboxylic acid, 1-ethyl ester]
mesangial expansion (PAS staining, score) (Col4a3−/− mice [1]): significant reduction; also recorded: significantly reduced mesangial expansion
renal fibrosis (Picrosirius Red staining) (Col4a3−/− mice [1]): significant reduction; also recorded: significantly reduced
esterified cholesterol (CE) content in kidney cortexes (Col4a3−/− mice [2]): reduces the esterified cholesterol content; also recorded: significantly decreased
triglyceride (TG) content in kidney cortexes (Col4a3−/− mice [2]): no effect on the Triglyceride content; also recorded: not observed
albumin/creatinine ratio (ACR) (Col4a3−/− mice [3]; 4-week-old Col4a3−/− mice treated 4 weeks, ezetimibe 5 mg/kg BW oral, ramipril 10 mg/kg BW in drinking water, vs untreated Col4a3−/−): significant reduction in the albumin/creatinine ratio; also recorded: significant decrease in the albumin/creatinine ratio
serum BUN levels (Col4a3−/− mice [3]; [6]): significant reduction in the serum BUN levels
serum creatinine levels (Col4a3−/− mice [3]; [6]): significant reduction in the serum creatinine levels
reduction of BUN levels, compared to ezetimibe alone (Col4a3−/− mice [3]; [7]): superior effect on reducing BUN levels
reduction of serum creatinine, compared to ezetimibe alone (Col4a3−/− mice [3]; [7]): superior effect on reducing serum creatinine levels
blood cholesterol levels ([4]; general knowledge stated in the patent): little or no effect
peripheral arterial resistance and blood pressure ([4]; hypertensive patients): reduction in blood pressure without a compensatory rise in heart rate
mortality ([4]; patients with clinical signs of congestive heart failure after surviving an acute myocardial infarction): reduce mortality
solubility in polar organic solvents and buffered aqueous solutions [5]: soluble

Col I: collagen I (Corning), 50 μg/mL, used to treat human podocytes
activation of DDR1 at the plasma membrane (DDR1; human podocytes, plasma membrane fraction): leads to activation of DDR1
DDR1 activation (pDDR1) (DDR1; normal human podocytes): leads to DDR1 activation
cholesterol ester to total cholesterol ratio (human podocytes; Col I treated human podocytes): mildly decreased
esterified cholesterol content (human podocytes; Col I treated human podocytes): increased
total cholesterol content (human podocytes; Col I treated human podocytes): increased total cholesterol content
cellular triglyceride content (human podocytes; human podocytes after Col I treatment): increased
number of lipid droplets per cell (BODIPY) (human podocytes; human podocytes, 50 μg/mL collagen, 18 hours, vs Ctrl): increased lipid droplet content
free fatty acid uptake (human podocytes; human podocytes, collagen I treated vs Ctrl): increased
